Experimental findings from patent publication US20240424111A1, “Degrader Compounds and Uses Thereof” (CALICO LIFE SCIENCES LLC, priority 2021, published 2024) are described below.

Assay [1] concerns the target T1, PTPN2 (Mus musculus, UniProt Q06180).
T1 construct: HiBiT; host or cells: B16F10.4
T1 sequence (Q06180 1-406): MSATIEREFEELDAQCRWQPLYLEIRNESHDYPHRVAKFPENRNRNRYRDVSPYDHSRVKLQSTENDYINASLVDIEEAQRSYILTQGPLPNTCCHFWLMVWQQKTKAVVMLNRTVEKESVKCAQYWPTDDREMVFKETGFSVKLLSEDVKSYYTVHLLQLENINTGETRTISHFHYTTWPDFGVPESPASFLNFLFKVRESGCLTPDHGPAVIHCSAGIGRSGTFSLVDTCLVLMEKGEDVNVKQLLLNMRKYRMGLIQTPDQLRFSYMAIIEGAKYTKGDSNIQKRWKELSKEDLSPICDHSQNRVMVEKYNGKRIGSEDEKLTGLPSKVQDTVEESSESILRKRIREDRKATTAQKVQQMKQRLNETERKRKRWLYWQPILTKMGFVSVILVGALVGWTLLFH
The experiment in a line: HiBiT PTPN2 degradation in B16F10.4 cells, 24 hours. In kind it is cell-based. The method, boiled down: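 PTPN2 degradation was measured via luminescence from the Nano-Glo® HiBiT Lytic Assay kit. Compounds were dispensed into 384-well plates at an 11-point half-log titration in duplicate, starting at 10 μM. Cells were added at 5000 per well and held at 37° C. with 5% CO2 for 24 hours. Untreated cells were the negative control and cells without lytic reagent the positive control. Lytic reagents were then added and luminescence read on an EnVision™ Multilabel Reader.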
A general note: HiBiT is a short tag that completes a luciferase, so light tracks the accessible tagged protein.

Assay [2] deals with T2, PTPN2 (Homo sapiens, UniProt P17706).
T2 construct: expressed in transfected cells; host or cells: 293T.109 (HiBiT-PTPN2), derived from 293T WT (ATCC)
T2 sequence (P17706 1-415): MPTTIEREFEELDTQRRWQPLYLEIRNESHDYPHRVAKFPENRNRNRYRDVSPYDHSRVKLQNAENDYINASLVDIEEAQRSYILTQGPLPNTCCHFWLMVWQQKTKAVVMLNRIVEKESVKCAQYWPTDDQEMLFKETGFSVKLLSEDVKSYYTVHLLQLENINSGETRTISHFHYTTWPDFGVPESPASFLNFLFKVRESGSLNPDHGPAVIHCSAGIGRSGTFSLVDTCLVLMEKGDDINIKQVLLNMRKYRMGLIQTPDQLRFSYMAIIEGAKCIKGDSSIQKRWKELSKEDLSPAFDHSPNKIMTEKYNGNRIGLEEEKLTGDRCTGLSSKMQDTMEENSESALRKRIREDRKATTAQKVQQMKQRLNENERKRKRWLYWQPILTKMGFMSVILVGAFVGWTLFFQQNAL
In words: HiBiT PTPN2 degradation in 293T.109 (HiBiT-PTPN2) cells, 24 hours. In kind it is cell-based. To be noted: 293T.109 cells. The method, boiled down: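 293T cells stably expressing N-terminal HiBiT-tagged PTPN2 were treated for 24 h at 37 °C with compound in an 11-point half-log series from 10 μM top concentration, in duplicate. Remaining HiBiT-PTPN2 was measured by lytic luminescence, with untreated cells as the negative control and wells without lytic reagent as the positive control.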

Usually DC50 stands for the concentration at which degradation of the target reaches its halfway point. Low readings indicate a more potent degrader, high ones a less potent degrader. With `C[C@H](C(=O)Nc1ccc2c(F)c(N3CC(=O)NS3(=O)=O)c(O)cc2c1)N1CCC(c2ccc3c(c2)n(C)c(=O)n3C2CCC(=O)NC2=O)CC1` (stereo partly shown) [Degrader 103], the DC50 on PTPN2 [1] was no less than 500 nM; on PTPN2 [2], less than 50 nM.
For `C[C@H](C(=O)Nc1ccc2c(F)c(N3CC(=O)NS3(=O)=O)c(O)cc2c1)C1CCN(c2ccc3c(c2)n(C)c(=O)n3C2CCC(=O)NC2=O)CC1` (stereo partly shown) [Degrader 105], in that order: 150 to 500 nM and 150 to 500 nM.
For `C[C@@H](C(=O)Nc1ccc2c(F)c(N3CC(=O)NS3(=O)=O)c(O)cc2c1)C1CCN(c2ccc3c(c2)n(C)c(=O)n3C2CCC(=O)NC2=O)CC1` (stereo partly shown) [Degrader 106], the DC50 at PTPN2 [1] and on PTPN2 [2] was 150 to 500 nM throughout.
On to `Cn1c(=O)n(C2CCC(=O)NC2=O)c2ccc(Nc3ccn(CC(=O)Nc4ccc5c(F)c(N6CC(=O)NS6(=O)=O)c(O)cc5c4)n3)cc21` (stereo not shown) [Degrader 107], for which the DC50 on PTPN2 [1] and on PTPN2 [2] was 50 to 150 nM throughout.
Take `Cn1c(=O)n(C2CCC(=O)NC2=O)c2ccc(-c3ccc(NCC4CC4C(=O)Nc4ccc5c(F)c(N6CC(=O)NS6(=O)=O)c(O)cc5c4)cc3)cc21` (stereo not shown) [Degrader 108]: the half-maximal degradation concentration (DC50) at PTPN2 [1] and on PTPN2 [2] was 50 to 150 nM throughout.
Regarding `Cn1c(=O)n(C2CCC(=O)NC2=O)c2ccc(N3[C@@H]4CC[C@H]3C[C@@H](CC(=O)Nc3ccc5c(F)c(N6CC(=O)NS6(=O)=O)c(O)cc5c3)C4)cc21` (stereo partly shown) [Degrader 109], the DC50 on PTPN2 [1] and at PTPN2 [2] was 150 to 500 nM in each case.
For `Cn1c(=O)n(C2CCC(=O)NC2=O)c2ccc(N3[C@@H]4CC[C@H]3C[C@H](CC(=O)Nc3ccc5c(F)c(N6CC(=O)NS6(=O)=O)c(O)cc5c3)C4)cc21` (stereo partly shown) [Degrader 110], the DC50 on PTPN2 [1] lay in the range of 150 to 500 nM; at PTPN2 [2], 50 to 150 nM.
With `Cn1c(=O)n(C2CCC(=O)NC2=O)c2ccc([C@@H]3CCN(CC(=O)Nc4ccc5c(F)c(N6CC(=O)NS6(=O)=O)c(O)cc5c4)C[C@H]3O)cc21` (stereo partly shown) [Degrader 111], the figures for the DC50 at PTPN2 [1] and on PTPN2 [2] were 50 to 150 nM and less than 50 nM, respectively.
As to `Cn1c(=O)n(C2CCC(=O)NC2=O)c2ccc([C@H]3CCN(CC(=O)Nc4ccc5c(F)c(N6CC(=O)NS6(=O)=O)c(O)cc5c4)C[C@@H]3O)cc21` (stereo partly shown) [Degrader 112], the values for the DC50 on PTPN2 [1] and on PTPN2 [2] were 50 to 150 nM and less than 50 nM, respectively.
For the compound `Cn1c(=O)n(C2CCC(=O)NC2=O)c2ccc(C3CCN(CC(=O)Nc4ccc5c(F)c(N6CC(=O)NS6(=O)=O)c(O)cc5c4)CC3=O)cc21` (stereo not shown) [Degrader 113], the DC50 at PTPN2 [1] was in the range of 150 to 500 nM; on PTPN2 [2], 50 to 150 nM.
For the compound `Cn1c(=O)n(C2CCC(=O)NC2=O)c2ccc(N3CCC(O)(CC(=O)N4CC[C@@H](c5ccc6cc(O)c(N7CC(=O)NS7(=O)=O)c(F)c6c5)C4)CC3)cc21` (stereo partly shown) [Degrader 114], the DC50 at PTPN2 [1] and on PTPN2 [2] was no less than 500 nM throughout.
Consider `Cn1c(=O)n(C2CCC(=O)NC2=O)c2ccc(N3CCC(O)(CC(=O)N4CC[C@H](c5ccc6cc(O)c(N7CC(=O)NS7(=O)=O)c(F)c6c5)C4)CC3)cc21` (stereo partly shown) [Degrader 115], for which the DC50 on PTPN2 [1] and on PTPN2 [2] was 150 to 500 nM throughout.
For `Cn1c(=O)n(C2CCC(=O)NC2=O)c2ccc(C3CCN(CC(=O)N4CC[C@H](Oc5ccc6cc(O)c(N7CC(=O)NS7(=O)=O)c(F)c6c5)C4)CC3(F)F)cc21` (stereo partly shown) [Degrader 116], the DC50 on PTPN2 [1] and at PTPN2 [2] was no less than 500 nM throughout.
With `Cn1c(=O)n(C2CCC(=O)NC2=O)c2ccc(C3CCN(CC(=O)N4CC[C@@H](Oc5ccc6cc(O)c(N7CC(=O)NS7(=O)=O)c(F)c6c5)C4)CC3(F)F)cc21` (stereo partly shown) [Degrader 117], the DC50 on PTPN2 [1] and on PTPN2 [2] was no less than 500 nM throughout.
With `Cn1c(=O)n(C2CCC(=O)NC2=O)c2ccc(N3CCC(C(C)(C)C(=O)Nc4ccc5c(F)c(N6CC(=O)NS6(=O)=O)c(O)cc5c4)CC3)cc21` (stereo not shown) [Degrader 118], the 50% degradation concentration (DC50) was 150 to 500 nM on PTPN2 [1] and no less than 500 nM on PTPN2 [2].
Regarding `Cn1c(=O)n(C2CCC(=O)NC2=O)c2ccc(N3CCc4cc(CC(=O)Nc5ccc6c(F)c(N7CC(=O)NS7(=O)=O)c(O)cc6c5)ccc43)cc21` (stereo not shown) [Degrader 119], the DC50 is 50 to 150 nM on PTPN2 [1] and 150 to 500 nM at PTPN2 [2].
For the compound `Cn1c(=O)n(C2CCC(=O)NC2=O)c2ccc(-n3ccc4cc(CC(=O)Nc5ccc6c(F)c(N7CC(=O)NS7(=O)=O)c(O)cc6c5)ccc43)cc21` (stereo not shown) [Degrader 120], the DC50 on PTPN2 [1] fell in the range of 50 to 150 nM; on PTPN2 [2] it was 150 to 500 nM.
As to `C[C@H]1CC(c2ccc3c(c2)n(C)c(=O)n3C2CCC(=O)NC2=O)CCN1CC(=O)Nc1ccc2c(F)c(N3CC(=O)NS3(=O)=O)c(O)cc2c1` (stereo partly shown) [Degrader 121], the DC50 on PTPN2 [1] was 50 to 150 nM; at PTPN2 [2] it was less than 50 nM.
As to `Cn1c(=O)n(C2CCC(=O)NC2=O)c2cnc(-c3ccc(CC(=O)Nc4ccc5c(F)c(N6CC(=O)NS6(=O)=O)c(O)cc5c4)cc3)cc21` (stereo not shown) [Degrader 122], the DC50 at PTPN2 [1] is 150 to 500 nM; on PTPN2 [2], no less than 500 nM.
With `Cn1c(=O)n(C2CCC(=O)NC2=O)c2ccc([C@@H]3CCN(CC(=O)Nc4ccc5c(F)c(N6CC(=O)NS6(=O)=O)c(O)cc5c4)C3)cc21` (stereo partly shown) [Degrader 124], the 50% degradation concentration (DC50) at PTPN2 [1] was 150 to 500 nM; at PTPN2 [2], less than 50 nM.
`Cn1cc(N2CCC(=O)NC2=O)c2cc(F)c(-c3ccc(CC(=O)Nc4ccc5c(F)c(N6CC(=O)NS6(=O)=O)c(O)cc5c4)cc3)cc21` [Degrader 125]: the DC50 at PTPN2 [1] and on PTPN2 [2] was 150 to 500 nM in each case.
As to `C[C@H]1CN(c2ccc3c(c2)n(C)c(=O)n3C2CCC(=O)NC2=O)CC[C@H]1CC(=O)Nc1ccc2c(F)c(N3CC(=O)NS3(=O)=O)c(O)cc2c1` (stereo partly shown) [Degrader 126], the DC50 at PTPN2 [1] and at PTPN2 [2] was 50 to 150 nM each time.
For the compound `C[C@@H]1CN(c2ccc3c(c2)n(C)c(=O)n3C2CCC(=O)NC2=O)CC[C@@H]1CC(=O)Nc1ccc2c(F)c(N3CC(=O)NS3(=O)=O)c(O)cc2c1` (stereo partly shown) [Degrader 127], the 50% degradation concentration (DC50) on PTPN2 [1] and at PTPN2 [2] was 50 to 150 nM each time.
In the case of `O=C1CCC(c2ccc(C3CCN(CC(=O)Nc4ccc5c(F)c(N6CC(=O)NS6(=O)=O)c(O)cc5c4)CC3)cc2)C(=O)N1` (stereo not shown) [Degrader 128], the DC50 is no less than 500 nM at PTPN2 [1] and 150 to 500 nM on PTPN2 [2].
Consider `Cn1nc(N2CCC(=O)NC2=O)c2cc(F)c(N3CCC(CC(=O)Nc4ccc5c(F)c(N6CC(=O)NS6(=O)=O)c(O)cc5c4)CC3)cc21` [Degrader 129], for which the DC50 on PTPN2 [1] fell in the range of 150 to 500 nM; on PTPN2 [2], 50 to 150 nM.
As for `CCn1c(=O)n(C2CCC(=O)NC2=O)c2ccc([C@@H]3CCN(CC(=O)Nc4ccc5c(F)c(N6CC(=O)NS6(=O)=O)c(O)cc5c4)C[C@H]3F)cc21` (stereo partly shown) [Degrader 131], the DC50 at PTPN2 [1] is no less than 500 nM; on PTPN2 [2], 150 to 500 nM.
On the same counts, the results for `C[C@@H]1CN(c2ccc3c(c2)n(C)c(=O)n3C2CCC(=O)NC2=O)CC[C@H]1CC(=O)Nc1ccc2c(F)c(N3CC(=O)NS3(=O)=O)c(O)cc2c1` (stereo partly shown) [Degrader 132] are 50 to 150 nM and 50 to 150 nM.
`C[C@H]1CN(c2ccc3c(c2)n(C)c(=O)n3C2CCC(=O)NC2=O)CC[C@@H]1CC(=O)Nc1ccc2c(F)c(N3CC(=O)NS3(=O)=O)c(O)cc2c1` (stereo partly shown) [Degrader 133]: the DC50 at PTPN2 [1] and on PTPN2 [2] was 50 to 150 nM throughout.
`Cn1nc(N2CCC(=O)NC2=O)c2cc(F)c(N3CCC(CC(=O)Nc4ccc5c(F)c(N6CC(=O)NS6(=O)=O)c(O)cc5c4)CC3)cc21` [Degrader 134]: the DC50 lay within 150 to 500 nM at PTPN2 [1] and 50 to 150 nM at PTPN2 [2].
